Laboratory results as given in paper PMC6397271 (Scientific Reports, 2019).
≈ marks a conversion by molar mass, not a printed value. Read-outs that look alike come from different tables or passages of the source.

Columns and labels:
S. aureus MRSA 12673 = test: microbe, parasite or virus in culture; assay type: cell-based, Staphylococcus aureus; conditions: for MIC: raw MIC
From the text: (§1) Three bacterial strains of MRSA (N315, 12673, 6347) and two of Enterococcus spp. (E. faecium, E. faecalis) were used. With respect to MRSA, N315 represented a reference Van-susceptible strain (GenBank GCA_00000645.1) isolated from a patient while 12673 (Van-intermediately susceptible) and 6347 (a h-VISA which appears at frequency of <10^−5 to 10^−6 is composed of two subpopulations of bacteria: one susceptible and one intermediately resistant)[38] were clinical strains obtained from patients of The Clinical University Centre of Gdańsk (UCK). […] The clinical strain isolates originated from the collection of the Department of Pharmaceutical Technology and Biochemistry, Faculty of Chemistry, Gdańsk University of Technology.
(§2) The strains were grown in Mueller-Hinton broth (MH cation-adjusted, Becton Dickinson) or Brain Heart Infusion broth (BHI, Becton Dickinson), respectively. The cultivation was carried out in an aerobic atmosphere at 37 °C for 24 hours and, afterwards, the bacterial cultures were diluted in geometric progression with a proper broth. Next, 100 µl of each dilution was inoculated in an agar plate and incubated at 37 °C for 24 h. The next procedures included determination of Colony Forming Units (CFU)/ml and minimal inhibitory concentration (MIC) of the compounds in question. The latter procedure was carried out according to the microbroth dilution technique using 96-well plates. The MICs were evaluated by using the metabolic assay based on the resazurin dye. The assay was performed in triplicates.

S. aureus MRSA N315 = test: microbe, parasite or virus in culture; assay type: cell-based, Staphylococcus aureus
From the text: as §1, §2

[1] = system: S. aureus MRSA hetero-VISA 6347; test: microbe, parasite or virus in culture; assay type: cell-based, Staphylococcus aureus; conditions: for MIC: raw MIC
From the text: as §1, §2

[2] = system: Enterococcus faecalis 3937158; test: microbe, parasite or virus in culture; assay type: cell-based; conditions: for MIC: raw MIC
From the text: as §1, §2

[3] = system: Enterococcus faecium 3934825; test: microbe, parasite or virus in culture; assay type: cell-based; conditions: for MIC: raw MIC
From the text: as §1, §2

sheep erythrocytes = test: Erythrocyte lysis assay; assay type: cell-based; conditions: 37 °C, 1 hour, A450 nm; for cell lysis (haemolysis): 10^8 cells/ml, vs 4% Triton X-100, triplicates
Method: The protocol of the lysis assay is presented below.
To obtain sheep erythrocytes, 5 ml of fresh blood was centrifuged at 1000 × g for 10 min and washed 3 times with 0.9% NaCl. Cell suspension (final concentration of 10^8 cells/ml) in a volume of 75 µl was added to each well of the 96-well microtiter plate and incubated at 37 °C in the presence of the tested compounds. The range of their concentrations was 100–0.049 µM (diluted in saline solution), which included that of MIC values for the tested strains of the bacteria.
Plates with samples were incubated at 37 °C for 1 hour and then centrifuged at 1000 × g for 10 min to separate the unlysed erythrocytes. Next, the supernatant was transferred to a new plate. The absorbance (A) was measured spectrophotometrically at 450 nm of wavelength. The experiments were performed in triplicates.
The haemolysis percentage was calculated according to the equation presented by Sharma et al.[43]. The percentage of haemolysis = [(A450nm of test compound treated sample-A450nm of buffer treated sample)/(A450nm of 4%TritonX-100 treated samples-A450nm of buffer treated sample)] × 100.

[4] = first block, test a, repetition 1, read-out: MIC1a
[5] = first block, test a, repetition 2, read-out: MIC2a
[6] = first block, test a, repetition 3, read-out: MIC3a
[7] = first block, test b, repetition 1, read-out: MIC1b
[8] = first block, test b, repetition 2, read-out: MIC2b
[9] = first block, test b, repetition 3, read-out: MIC3b
[10] = test a, repetition 1, read-out: MIC1a
[11] = test a, repetition 2, read-out: MIC2a
[12] = test a, repetition 3, read-out: MIC3a
[13] = test b, repetition 1, read-out: MIC1b
[14] = test b, repetition 2, read-out: MIC2b
[15] = test b, repetition 3, read-out: MIC3b
[16] = same test as μM value, mean ± SD

Compound: CC[C@H](C)[C@H](NC(=O)[C@H](CCCCN)NC(=O)[C@H](CCCCN)NC(=O)[C@H](C)NC(=O)[C@H](CC(C)C)NC(=O)[C@H](C)NC(=O)[C@H](C)NC(=O)[C@H](CC(C)C)NC(=O)[C@H](C)NC(=O)[C@H](CCCCN)NC(=O)[C@H](CC(C)C)NC(=O)[C@H](CC(N)=O)NC(=O)[C@@H](NC(=O)[C@H](CCCCN)NC(=O)CNC(=O)[C@H](CC(C)C)NC(=O)[C@H](CC(C)C)NC(=O)[C@H](Cc1ccc(O)cc1)NC(=O)CNC(=O)[C@H](C)NC(=O)c1cn(CCOCCOCCOCCNC(=O)[C@H]2NC(=O)[C@H]3NC(=O)[C@H](NC(=O)[C@@H]4NC(=O)[C@H](CC(N)=O)NC(=O)[C@H](NC(=O)[C@@H](CC(C)C)NC)[C@H](O)c5ccc(c(Cl)c5)Oc5cc4cc(c5O[C@@H]4O[C@H](CO)[C@@H](O)[C@H](O)[C@H]4O[C@H]4C[C@](C)(N)[C@H](O)[C@H](C)O4)Oc4ccc(cc4Cl)[C@H]3O)c3ccc(O)c(c3)-c3c(O)cc(O)cc32)nn1)[C@@H](C)CC)C(=O)N[C@@H](CC(C)C)C(N)=O [conjugate I, Van-PEG3-TP10]
- MIC (S. aureus MRSA 12673; [4]): 1.56 µM (≈ 6.06 µg/mL)
- MIC (S. aureus MRSA 12673; [5]): 3.12 µM (≈ 12.1 µg/mL)
- MIC (S. aureus MRSA 12673; [6]): 1.56 µM (≈ 6.06 µg/mL)
- MIC (S. aureus MRSA 12673; [7]): 1.56 µM (≈ 6.06 µg/mL)
- MIC (S. aureus MRSA 12673; [8]): 3.12 µM (≈ 12.1 µg/mL)
- MIC (S. aureus MRSA 12673; [9]): 3.12 µM (≈ 12.1 µg/mL)
- MIC (S. aureus MRSA 12673; [10]): 6.06 µM (≈ 23.5 µg/mL)
- MIC (S. aureus MRSA 12673; [11]): 6.06 µM (≈ 23.5 µg/mL)
- MIC (S. aureus MRSA 12673; [12]): 6.06 µM (≈ 23.5 µg/mL)
- MIC (S. aureus MRSA 12673; [13]): 6.06 µM (≈ 23.5 µg/mL)
- MIC (S. aureus MRSA 12673; [14]): 12.12 µM (≈ 47.1 µg/mL)
- MIC (S. aureus MRSA 12673; [15]): 12.12 µM (≈ 47.1 µg/mL)
- MIC in (μg/ml) (S. aureus MRSA 12673; [16]): 6.1 ± 3.1 µg/mL (≈ 1.57 µM)
- MIC (S. aureus MRSA N315; microbroth dilution, 96-well, resazurin, 37 °C, 24 h, mean ± SD, at least three independent experiments in triplicates): 1.6 ± 0.9 µM (≈ 6.21 µg/mL)
- MIC (S. aureus MRSA N315; microbroth dilution, 96-well, resazurin, 37 °C, 24 h, mean ± SD, at least three independent experiments in triplicates, read-out: MIC): 1.6 µM (≈ 6.21 µg/mL)
- MIC (S. aureus MRSA N315; raw MIC, first block, test a, repetition 1, read-out: MIC1a): 1.56 µM (≈ 6.06 µg/mL)
- MIC (S. aureus MRSA N315; raw MIC, first block, test a, repetition 2, read-out: MIC2a): 3.12 µM (≈ 12.1 µg/mL)
- MIC (S. aureus MRSA N315; raw MIC, first block, test a, repetition 3, read-out: MIC3a): 1.56 µM (≈ 6.06 µg/mL)
- MIC (S. aureus MRSA N315; raw MIC, first block, test b, repetition 1, read-out: MIC1b): 3.125 µM (≈ 12.1 µg/mL)
- MIC (S. aureus MRSA N315; raw MIC, first block, test b, repetition 2, read-out: MIC2b): 1.56 µM (≈ 6.06 µg/mL)
- MIC (S. aureus MRSA N315; raw MIC, first block, test b, repetition 3, read-out: MIC3b): 1.56 µM (≈ 6.06 µg/mL)
- MIC (S. aureus MRSA N315; raw MIC, test a, repetition 1, read-out: MIC1a): 6.06 µM (≈ 23.5 µg/mL)
- MIC (S. aureus MRSA N315; raw MIC, test a, repetition 2, read-out: MIC2a): 12.12 µM (≈ 47.1 µg/mL)
- MIC (S. aureus MRSA N315; raw MIC, test a, repetition 3, read-out: MIC3a): 6.06 µM (≈ 23.5 µg/mL)
- MIC (S. aureus MRSA N315; raw MIC, test b, repetition 1, read-out: MIC1b): 6.06 µM (≈ 23.5 µg/mL)
- MIC (S. aureus MRSA N315; raw MIC, test b, repetition 2, read-out: MIC2b): 6.06 µM (≈ 23.5 µg/mL)
- MIC (S. aureus MRSA N315; raw MIC, test b, repetition 3, read-out: MIC3b): 6.06 µM (≈ 23.5 µg/mL)
- MIC in (μg/ml) (S. aureus MRSA N315; [16]): 6.1 ± 2.5 µg/mL (≈ 1.57 µM)
- MIC [1, 4]: 1.56 µM (≈ 6.06 µg/mL)
- MIC [1, 5]: 1.56 µM (≈ 6.06 µg/mL)
- MIC [1, 6]: 0.78 µM (≈ 3.03 µg/mL)
- MIC [1, 7]: 1.56 µM (≈ 6.06 µg/mL)
- MIC [1, 8]: 1.56 µM (≈ 6.06 µg/mL)
- MIC [1, 9]: 1.56 µM (≈ 6.06 µg/mL)
- MIC [1, 10]: 6.06 µM (≈ 23.5 µg/mL)
- MIC [1, 11]: 6.06 µM (≈ 23.5 µg/mL)
- MIC [1, 12]: 3.03 µM (≈ 11.8 µg/mL)
- MIC [1, 13]: 6.06 µM (≈ 23.5 µg/mL)
- MIC [1, 14]: 6.06 µM (≈ 23.5 µg/mL)
- MIC [1, 15]: 6.06 µM (≈ 23.5 µg/mL)
- MIC in (μg/ml) [1, 16]: 6.1 ± 1.2 µg/mL (≈ 1.57 µM)
- MIC [2, 4]: 6.25 µM (≈ 24.3 µg/mL)
- MIC [2, 5]: 3.1 µM (≈ 12 µg/mL)
- MIC [2, 6]: 6.25 µM (≈ 24.3 µg/mL)
- MIC [2, 7]: 6.25 µM (≈ 24.3 µg/mL)
- MIC [2, 8]: 6.25 µM (≈ 24.3 µg/mL)
- MIC [2, 9]: 3.1 µM (≈ 12 µg/mL)
- MIC [2, 10]: 24.27 µM (≈ 94.2 µg/mL)
- MIC [2, 11]: 12.14 µM (≈ 47.1 µg/mL)
- MIC [2, 12]: 24.27 µM (≈ 94.2 µg/mL)
- MIC [2, 13]: 24.27 µM (≈ 94.2 µg/mL)
- MIC [2, 14]: 24.27 µM (≈ 94.2 µg/mL)
- MIC [2, 15]: 12.14 µM (≈ 47.1 µg/mL)
- MIC in (μg/ml) [2, 16]: 24.3 ± 6.3 µg/mL (≈ 6.26 µM)
- MIC [3, 4]: 50 µM (≈ 194 µg/mL)
- MIC [3, 5]: 50 µM (≈ 194 µg/mL)
- MIC [3, 6]: 50 µM (≈ 194 µg/mL)
- MIC [3, 7]: 25 µM (≈ 97.1 µg/mL)
- MIC [3, 8]: 50 µM (≈ 194 µg/mL)
- MIC [3, 9]: 50 µM (≈ 194 µg/mL)
- MIC [3, 10]: 194.2 µM (≈ 754 µg/mL)
- MIC [3, 11]: 194.2 µM (≈ 754 µg/mL)
- MIC [3, 12]: 194.2 µM (≈ 754 µg/mL)
- MIC [3, 13]: 97.1 µM (≈ 377 µg/mL)
- MIC [3, 14]: 194.2 µM (≈ 754 µg/mL)
- MIC [3, 15]: 194.2 µM (≈ 754 µg/mL)
- MIC in (μg/ml) [3, 16]: 194.2 ± 39.6 µg/mL (≈ 50 µM)
- cell lysis (haemolysis) (sheep erythrocytes; 12.5 µM): 15%
- cell lysis (haemolysis) (sheep erythrocytes; 100 µM): 93%
- hemolysis at MIC concentrations (sheep erythrocytes; 6.25–0.78 μM): lack of hemolysis
